This is an account of results in patent US5637624A, “Ring-substituted 2-amino-1,2,3,4-tetrahydronaphthalenes and 3-aminochromanes” (Eli Lilly and Company, priority 1993, dated 1997).

Where a name gives a salt, the structure may show the parent alone. Read-outs that look alike come from different tables or passages of the source.

For one data set, the target named is T1, 5-HT1A receptors (Rattus norvegicus, UniProt P19327).
T1 construct: synaptosomal membranes isolated from cerebral cortex; from tissue; host or cells: cerebral cortex of male Sprague-Dawley rats, crude synaptosomal membranes
T1 sequence (P19327 1-422): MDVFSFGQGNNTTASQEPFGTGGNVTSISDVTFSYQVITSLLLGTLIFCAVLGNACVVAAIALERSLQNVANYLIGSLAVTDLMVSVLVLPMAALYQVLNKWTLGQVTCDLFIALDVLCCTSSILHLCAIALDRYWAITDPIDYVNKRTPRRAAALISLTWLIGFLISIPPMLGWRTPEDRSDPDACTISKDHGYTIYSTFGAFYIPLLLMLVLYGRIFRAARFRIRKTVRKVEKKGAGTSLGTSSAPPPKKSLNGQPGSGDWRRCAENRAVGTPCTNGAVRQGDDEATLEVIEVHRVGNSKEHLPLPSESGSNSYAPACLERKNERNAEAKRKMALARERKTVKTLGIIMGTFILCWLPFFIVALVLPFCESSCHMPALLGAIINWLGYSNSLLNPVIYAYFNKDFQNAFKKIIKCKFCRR
Kind of data set: Inhibition of 3H-8-OH-DPAT binding at 5-HT1A in vitro (rat cerebral cortex synaptosomal membranes). Set-up: species or system Male Sprague-Dawley rats (cerebral cortex). Here is the method: This general procedure is set forth in Wong et al., J. Neural Transm. 71:207-218 (1988).
Male Sprague-Dawley rats (110-150 g) from Harlan Industries (Cumberland, Ind.) were fed a Purina Chow ad libitum for at least 3 days before being used in the studies. Rats were killed by decapitation. The brains were rapidly removed, and the cerebral cortices were dissected out at 4° C.
Brain tissues were homogenized in 0.32M sucrose. After centrifugation at 1000×g for 10 min and then at 17000×g for 20 min, a crude synaptosomal fraction was sedimented. The pellet was suspended in 100 vol of 50 mM Tris-HCl, pH 7.4, incubated at 37° C. for 10 min, and centrifuged at 50000×g for 10 min. The process was repeated and the final pellet was suspended in ice-chilled 50 mM Tris-HCl, pH 7.4. By the radioligand binding method, sites specifically labeled by tritiated 8-hydroxy-2-dipropylamino1,2,3,4-tetrahydronaphthalene (^3 H-8-OH-DPAT) have been identified as 5-HT1A receptors.
Binding of (hu 3H-8-OH-DPAT) was performed according to the previously described method [Wong et. al., J. Neural Transm. 64:251-269 (1985)]. Briefly, synaptosomal membranes isolated from cerebral cortex were incubated at 37° C. for 10 min. in 2 ml of 50 mM Tris-HCl, pH 7.4; 10 μM pargyline; 0.6 mM ascorbic acid; and 0.4 nM ^3 H-8-OH-DPAT. Binding was terminated by filtering samples under reduced pressure through glass fiber (GFB) filters. The filters were washed twice with 5 ml of ice cold buffer and placed in scintillation vials with 10 ml of PCS (Amersham/Searle) scintillation fluid. Radioactivity was measured with a liquid scintillation spectrometer. Unlabeled 8-OH-DPAT at 10 μM was also included in separate samples to establish non-specific binding. Specific binding of ^3 H-8-OH-DPAT is defined as the difference of radioactivity bound in the absence and in the presence of 10 μM unlabeled 8-OH-DPAT.

In data set [1] the test system is 5-hydroxyindoleacetic acid (5-HIAA), a metabolite of 5-HT, in whole brain. The experiment in a line: Effectiveness by oral administration: decrease in brain concentration of 5-HIAA. It is filed as in vivo, male Sprague-Dawley rats. The following applies: p.o.; for minimal effective dose: Rattus norvegicus, po, 2 h, read-out: minimum effective dose when administered orally; for Percent Reduction over Control (5-HIAA) / 5-HIAA Concentration in Whole Brain: 2 hours; for 5-HIAA Concentration in Whole Brain: control 1.67 ± 0.08. Here is the method: The activity of compounds of this invention when administered orally was determined and compared with literature compounds structurally related to the compounds of this invention. Thus, the test compound was administered to male Sprague-Dawley rats orally (p.o.), five rats being used in each test group. The rats were sacrificed two hours following p.o. administration, and the brain concentration of 5-hydroxyindoleacetic acid (5-HIAA), a metabolite of 5-HT, was measured.

Data set [2] in a line: Effectiveness by subcutaneous (s.c.) administration. It is filed as in vivo. To be noted: for minimal effective dose: sc, read-out: minimum effective dose when administered subcutaneously.
A short description of data set [3]: Hygroscopicity observed on isolation of the salt. In kind it is physicochemical. To be noted: fumarate salt, recrystallized from ethanol/diethyl ether. Here is the method: To a solution of water (60 mL) which contains methanesulfonic acid (0.16 mL, 2.33 mMol) was added 2-di-propylamino-8-methylthio-1,2,3,4-tetrahydronaphthalene (630 mg, 2.33 mMol). To this solution was added a solution of sodium metaperiodate (550 mg, 2.57 mMol) in water (10 mL), and the reaction mixture was stirred for two days at room temperature. The reaction mixture was made basic (NH4 OH) and extracted with dichloromethane. The organic extracts were combined, dried (Na2 SO4) and concentrated in vacuo to give the crude title compound as a light yellow oil. Purification by flash chromatography (3% methanol in dichloromethane+tr. NH4 OH) gave the desired product (580 mg, 85%) as a colorless oil. The fumarate salt was formed. […] Drying in a vacuum dessicator (60° C., 18 hours) gave a colorless glass (260 mg, m.p. =63° C.).

For the molecule `CCCN(CCC)[C@@H]1CCc2cccc(SC)c2[C@@H]1C` (relative stereo) [Example 8, cis-1-Methyl-2-di-n-propylamino-8-thiomethyl-1,2,3,4-tetrahydronaphthalene], at 5-HT1A receptors (0.4 nM 3H-8-OH-DPAT, rat cerebral cortex synaptosomal membranes, 37° C., 10 min, pH 7.4, read-out: IC50, 5HT1a (concentration required to inhibit the binding of 3H-8-OH-DPAT by 50%)), the IC50 amounted to 297 nM.

For `CCCN(CCC)C1CCc2cccc(SC)c2C1` (stereo not drawn) [Example 1, 2-Di-n-propylamino-8-thiomethyl1,2,3,4-tetrahydronaphthalene], on 5-HT1A receptors, the IC50 worked out at 0.3 nM. The minimal effective dose in data set [1] is roughly 1 mg/kg; in data set [2] it was roughly 0.3 mg/kg. Further, the “Percent Reduction over Control (5-HIAA)” value was 0% in data set [1] (0.1 mg/Kg), 13% in data set [1] (1 mg/Kg) and 25% in data set [1] (10 mg/Kg). The “5-HIAA Concentration in Whole Brain” value in data set [1] (0.1 mg/Kg) was 1.56 ± 0.04 nmol/g; in data set [1] (1 mg/Kg) it was 1.45 ± 0.03 nmol/g; in data set [1] (10 mg/Kg), 1.25 ± 0.06 nmol/g. Also, in data set [1] (vs 8-OH-DPAT), the “minimum effective dose relative to 8-OH-DPAT, oral” value was “about ten-fold less”. In addition, the “potency relative to 8-OH-DPAT, subcutaneous” value in data set [2] (vs 8-OH-DPAT) is on record as “about ten-fold less potent”.

`CCCN(CCC)C1CCc2cccc(SCC)c2C1` (stereo not drawn) [Example 2, 2-Di-n-propylamino-8-thioethyl-1,2,3,4-tetrahydronaphthalene] showed an IC50 at 5-HT1A receptors of 30.7 nM.

As for `CCCN(CCC)C1CCc2cccc(Sc3ccccc3)c2C1` (stereo not drawn) [Example 3, 2-Di-n-propylamino-8-thiophenyl-1,2,3,4-tetrahydronaphthalene], the IC50 at 5-HT1A receptors was 22.2 nM.

Turning to `CCCN(CCC)C1CCc2cccc(SCc3ccccc3)c2C1` (stereo not drawn) [Example 4, 2-Di-n-propylamino-8-thiobenzyl-1,2,3,4-tetrahydronaphthalene], the IC50 at 5-HT1A receptors came out at 2.8 nM.

Consider `CCCN(CCC)C1CCc2cccc([S+](C)[O-])c2C1` (stereo not drawn) [Example 5, 2-Di-n-propylamino-8-methylsulfinyl-1,2,3,4-tetrahydronaphthalene], for which the hygroscopicity entry in data set [3] was “extremely hygroscopic”. On 5-HT1A receptors, this molecule yielded an IC50 of 71.1 nM.

`CCCN(CCC)C1CCc2cccc(S(C)(=O)=O)c2C1` (stereo not drawn) [Example 6, 2-Di-n-propylamino-8-methylsulfonyl-1,2,3,4-tetrahydronaphthalene] showed an IC50 at 5-HT1A receptors of 10 nM.

`CSc1cccc2c1CC(N(C)C)CC2` (stereo not drawn) [Example 7, 2-Dimethylamino-8-thiomethyl-1,2,3,4-tetrahydronaphthalene] registered an IC50 at 5-HT1A receptors of 21 nM.

In the case of `CCCN(CCC)C1CCc2cccc(O)c2C1` (stereo not drawn) [Example 8-OH-DPAT, 8-hydroxy-2-dipropylamino1,2,3,4-tetrahydronaphthalene, reference compound], the minimal effective dose is roughly 10 mg/kg in data set [1] and roughly 0.03 mg/kg in data set [2]. Also, the “Percent Reduction over Control (5-HIAA)” value is on record as 0% in data set [1] (0.1 mg/Kg), 0% in data set [1] (1 mg/Kg) and 16% in data set [1] (10 mg/Kg). Also, the “5-HIAA Concentration in Whole Brain” value in data set [1] (0.1 mg/Kg) stood at 1.62 ± 0.07 nmol/g; in data set [1] (1 mg/Kg) it was 1.75 ± 0.05 nmol/g; in data set [1] (10 mg/Kg), 1.40 ± 0.06 nmol/g.

Turning to `CCCN(CCC)C1CCc2cccc(Sc3ccc(C)cc3)c2C1` (stereo not drawn) [Example 9], the IC50 on 5-HT1A receptors was determined as 59 nM.

Take `CCCN(CCC)C1CCc2cccc(Sc3ccccn3)c2C1` (stereo not drawn) [Example 10]: the IC50 at 5-HT1A receptors was determined as 9 nM.

At 5-HT1A receptors, `CCCN(CCC)C1COc2cccc(SC)c2C1` (stereo not drawn) [Example 11, 3-(Di-n-propylamino)-5-methylthio-chromane hydrochloride] came in with an IC50 of 2.5 nM.
